Laboratory results from ChEMBL document CHEMBL4842376, “Design, synthesis and biological evaluation of novel hybrids targeting mTOR and HDACs for potential treatment of hepatocellular carcinoma” (Eur J Med Chem, 2021).
Active and inactive are the calls of the source. The rule behind the calls is not given here.

Assays:
HepG2 [1] = assay: Induction of apoptosis in human HepG2 cells assessed as early apoptotic cells at 10 uM measured after 24 hrs by Annexin V-FITC/PI staining based flow cytometry analysis (Rvb= 6.15%); assay type: functional
HepG2 [2] = assay: Induction of cell cycle arrest in human HepG2 cells assessed as accumulation of cells in G2/M phase at 1.5 uM measured after 24 hrs by propidium iodide staining based flow cytometry analysis (Rvb= 17.8 to 18.5%); assay type: functional
[3] = target: T1, Protein deacetylase HDAC6 (Homo sapiens) (UniProt Q9UBN7); assay: Inhibition of HDAC6 (unknown origin) at 1 uM using Ac-peptide as a substrate pretreated for 15 mins followed by substrate addition relative to control
T1 sequence (whole entry): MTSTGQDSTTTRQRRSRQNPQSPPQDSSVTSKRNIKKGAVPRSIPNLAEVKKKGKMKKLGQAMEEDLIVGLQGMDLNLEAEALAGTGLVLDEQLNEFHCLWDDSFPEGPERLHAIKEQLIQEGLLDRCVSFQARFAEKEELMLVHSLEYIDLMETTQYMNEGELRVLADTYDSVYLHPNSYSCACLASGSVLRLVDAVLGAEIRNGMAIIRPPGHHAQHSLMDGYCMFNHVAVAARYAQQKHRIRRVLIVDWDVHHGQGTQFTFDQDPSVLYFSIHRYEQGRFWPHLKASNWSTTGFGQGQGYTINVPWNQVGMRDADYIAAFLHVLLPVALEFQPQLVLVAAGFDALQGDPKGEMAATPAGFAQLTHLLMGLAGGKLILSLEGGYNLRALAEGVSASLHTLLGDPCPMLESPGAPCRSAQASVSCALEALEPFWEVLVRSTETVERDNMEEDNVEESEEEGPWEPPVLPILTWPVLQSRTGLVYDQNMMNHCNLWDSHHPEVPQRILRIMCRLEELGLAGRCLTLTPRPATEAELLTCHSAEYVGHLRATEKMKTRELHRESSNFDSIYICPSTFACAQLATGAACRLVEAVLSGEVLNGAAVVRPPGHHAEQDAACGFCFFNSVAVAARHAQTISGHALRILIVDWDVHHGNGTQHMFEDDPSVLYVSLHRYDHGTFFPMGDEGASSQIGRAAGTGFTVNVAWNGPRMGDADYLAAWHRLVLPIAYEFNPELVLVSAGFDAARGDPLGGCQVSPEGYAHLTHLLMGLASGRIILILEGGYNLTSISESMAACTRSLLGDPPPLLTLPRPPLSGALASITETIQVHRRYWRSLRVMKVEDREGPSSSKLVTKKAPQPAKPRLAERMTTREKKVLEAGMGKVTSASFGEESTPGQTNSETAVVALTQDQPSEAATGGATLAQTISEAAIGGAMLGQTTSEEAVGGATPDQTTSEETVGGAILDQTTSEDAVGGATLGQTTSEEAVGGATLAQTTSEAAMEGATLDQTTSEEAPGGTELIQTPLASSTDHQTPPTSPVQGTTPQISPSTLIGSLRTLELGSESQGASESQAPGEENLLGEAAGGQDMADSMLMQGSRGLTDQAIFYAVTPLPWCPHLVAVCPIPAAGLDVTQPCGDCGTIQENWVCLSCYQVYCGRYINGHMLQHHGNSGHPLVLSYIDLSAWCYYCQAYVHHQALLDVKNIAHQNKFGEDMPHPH

[4] = target: T2, Serine/threonine-protein kinase mTOR (Homo sapiens, UniProt P42345); assay: Inhibition of mTOR (unknown origin) using U-Light-4E-BP1 peptide as a substrate in the presence of ATP incubated for 30 mins by Lance ultra assay
[5] = target: T2, Serine/threonine-protein kinase mTOR; assay: Inhibition of mTOR in human HepG2 cells assessed as reduction in phosphorylation of p70S6K measured after 24 hrs by western blot analysis; assay type: cell-based; settings: dose 1.5-6 µM
HepG2 [6] = assay: Induction of apoptosis in human HepG2 cells assessed as late apoptotic cells at 2.5 uM measured after 24 hrs by Annexin V-FITC/PI staining based flow cytometry analysis (Rvb= […]); assay type: functional
[7] = target: T2, Serine/threonine-protein kinase mTOR; assay: Inhibition of mTOR in human HepG2 cells assessed as reduction in phosphorylation of 4EBP1 measured after 24 hrs by western blot analysis; assay type: cell-based; settings: dose 1.5-6 µM
[8] = target: T2, Serine/threonine-protein kinase mTOR; assay: Activation of mTOR in human HepG2 cells assessed as increase in p70S6K phosphorylation at 1.5 uM measured after 24 hrs by western blot analysis; assay type: cell-based; settings: filed as activator
[9] = target: T2, Serine/threonine-protein kinase mTOR; assay: Activation of mTOR in human HepG2 cells assessed as increase in 4EBP1 phosphorylation at 1.5 uM measured after 24 hrs by western blot analysis; assay type: cell-based; settings: filed as activator

| SMILES | Activity (HepG2 [1]) [%] | Activity (HepG2 [2]) [%] | inhibition [3] [%] | IC50 [4] [nM] | inhibition [5] | Activity (HepG2 [6]) [%] | inhibition [7] | Activity [8] | Activity [9] |
| --- | --- | --- | --- | --- | --- | --- | --- | --- | --- |
| Nc1nc2cc(-c3nn(CCCCCCC(=O)NO)c4ncnc(N)c34)ccc2o1 | 30.4 | 14.8 | 99 | 7.67 | Dose-Dependent Effect | 8.06 | Dose-Dependent Effect |  |  |
| Nc1ncnc2c1c(-c1cnc3[nH]ccc3c1)nn2CCCCCCCCC(=O)NO | 19.7 | 19.4 | 99.2 | 92.3 |  | 12.3 |  | Active | Active |
